From US12419891B2, “Compositions for the treatment of pathogenic- and/or chemical-induced lung injury and for the treatment of cancer and methods of using same” (Duke University, priority 2019, dated 2025)

Tests used:
Primary HBECs [1] = assay: primary HBECs pre-treated with Abl kinase inhibitor before exposure to S. aureus, Western blot; type: cell-based, human; conditions: pre-treated 24 hours prior to exposure to S. aureus
Description: Cell Culture. Primary human bronchial epithelial cells were isolated as previously described (Fulcher M L & Randell S H (2013) Methods Mol Biol 945:109-121) and passage 1 cells were derived from human lungs unsuitable for transplantation from non-smoker organ donors without pre-existing lung disease under protocol #03-1396 approved by the University of North Carolina at Chapel Hill Biomedical Institutional Review Board. Informed consent was obtained from authorized representatives of all organ donors. 30,000 cells were plated into each well of 6.5 mm polyester inserts containing 0.4 μm pores (Sigma-CLS3470) coated with Type IV human placenta collagen (Sigma-C7521). 100 μl of ALI medium was added to the insert and 600 μl of ALI medium was added to the well at the time of plating. At Day 3, ALI medium from the insert was removed while that in the well was changed daily for 28 days. At Day 28, the inserts containing the cells were removed from their wells, washed with PBS, and incubated at 37° C. for 30 minutes with 1×10^8 CFU S. aureus. Cells were then washed three times with PBS and returned to wells containing 600 μl of ALI medium to regrow. […]
Immunoblotting. […] Protein was quantified, and equal amounts of protein was separated by SDS-polyacrylamide gel electrophoresis (BioRad-1610183) and transferred onto 0.2 μm pore nitrocellulose membranes. […]

[2] = system: Basal cells (bronchospheres); assay: bronchosphere 3D Matrigel culture assay; type: cell-based, human; conditions: for SOX2 (basal cell marker) expression, immunoblot / acetylated α-tubulin (ciliated cell marker) expression, immunoblot: bronchosphere lysates; for Ki67 (proliferation marker) protein expression: vs untreated cells; for bronchosphere growth: basal cell proliferation and differentiation: treated three days starting two days after plating
Experimental: The effect of Abl kinase inhibition on the development of bronchospheres in a 3D Matrigel culture assay was also evaluated. Basal cells were cultured in Matrigel at passage 1 and treated with vehicle control, the Abl kinase inhibitor, GNF5, or the Abl kinase activator, DPH, for three days starting two days after plating the cells.

Primary HBECs [3] = assay: transepithelial electrical resistance assay in ALI cultures of primary HBECs; type: cell-based, human; conditions: vs vehicle control-treated cells
Description: Thus, inhibition of the Abl kinases in 3D ALI cultures of primary HBECs promotes basal cell differentiation and enhances barrier function.

[4] = system: mice exposed to S. aureus; assay: mouse model of pneumonia induced by nasal insufflation of S. aureus; type: in vivo
Experimental: Bacteria. S. aureus (Ssp. aureus, No. 25923; American Type Culture Collection) was grown as previously described (Suliman H B et al. (2017) Mitochondrial quality control in alveolar epithelial cells damaged by S. aureus pneumonia in mice. American journal of physiology. Lung cellular and molecular physiology 313(4):L699-L709). Dilutions of 5×10^8 CFU were used for mouse experiments, and dilutions of 1×10^8 CFU were used for cell culture experiments. S. pneumoniae (serotype 19, No. 49619; American Type Culture Collection) was grown as previously described (Gomez J C, et al. (2016) Journal of immunology 197(7):2864-2879). Dilutions of 6×10^5 CFU were used for mouse experiments.
CC10 (Scgb1a1)-CreERT; Rosa26R-CAG-farnesylated GFP (Rosa26-fGFP) and SPC (Sftpc)-CreERT2; Rosa26-tdTomato mice were kindly provided by Dr. Mark Onaitis and generated by Dr. Brigid Hogan at Duke University and have been previously described (Rawlins E L, et al. (2009) Cell stem cell 4(6):525-534, Xu X, et al. (2012) Proc Natl Acad Sci USA 109(13):4910-4915). These mice were crossed with Abl1^flox/flox mice (Moresco E M, et al. (2005) J Neurosci 25(26):6105-6118) into a C57BL/6 genetic background. Sox2^tmHoch/J mice (referred to as SOX2-eGFP mice in the text) were purchased from the Jackson Laboratory. Gt(Rosa) 26Sor^tm9(EGFP/Rpl10z)Amc/J (referred to as L10-eGFP in the text) mice were purchased from the Jackson Laboratory and were crossed to CC10-CreERT; Abl1^flox/flox mice into a C57BL/6 genetic background for the TRAP experiments. To induce expression of Cre-recombinase for both TRAP experiments and lineage tracing experiments, 8to 20-week-old male and female mice were injected intraperitoneally four times every other day with 0.25 mg/g body weight Tamoxifen (Sigma-T5648) in corn oil (Spectrum-CO136). Exposure to S. aureus was initiated 15 days after the last dose of Tamoxifen. Alternatively, mice were inoculated with purified Adenovirus5-CC10-Cre virus obtained from the University of Iowa Viral Vector Core Facility and generated by Dr. Anton Berns (Netherlands Cancer Institute). 10 μL of stock virus solution was mixed in 30 μL of Minimum Essential Medium and delivered intranasally twice, three days apart, three weeks prior to induction of S. aureus pneumonia. Mice were anesthetized using 0.3 mg xylazine and […] ketamine intraperitoneally prior to intranasal inoculation with a 50 μL dilution of 5×10^8 S. aureus. The mice were monitored daily for weight loss and signs of respiratory distress and euthanized in an isofluorane chamber at days 0, 1, 2, and 3 after inoculation. All experiments were performed under the Duke University IACUC approved protocols: A098-16-04 and A130-16-06. Male and female mice at different ages (8 to 20 weeks old) were evaluated for differential response to drug (Abl kinase inhibitors and tamoxifen) and/or injury, and no significant effects of age and gender were observed.
Inhibitors. GNF5 (N-(2-Hydroxyethyl)-3-(6-(4-(trifluoromethoxy)phenylamino)pyrimidin-4-yl)benzamide) was synthesized at the Duke University's Small Molecule Synthesis Facility, and validated by LC-MS and 1H-NMR/FT-IR spectra and with cell-based assays that confirm potencies and cell signaling inhibitory activities. For in vivo experiments, GNF5 was prepared in a suspension with 0.5% methylcellulose and 0.5% Tween-80 at a concentration of 10 mg/mL, and mice were treated with either 20 mg/kg, 40 mg/kg, or 100 mg/kg b.i.d. via oral gavage.
Bronchoalveolar lavage preparation and assays. Bronchoalveolar lavage (BAL) fluid was collected immediately after euthanasia three days after exposure to S. aureus as previously described (Suliman H B, et al. (2017) Lung cellular and molecular physiology 313(4):L699-L709). Bilateral BAL was performed using two 1 mL aliquots of sterile PBS with approximately 75-80% retrieval per mouse. […]

[5] = system: primary human bronchial epithelial cells (HBECs); assay: basal cell differentiation of primary HBECs in air-liquid interface (ALI) cultures; type: cell-based; conditions: vs vehicle
Description: Cell Culture. Primary human bronchial epithelial cells were isolated as previously described (Fulcher M L & Randell S H (2013) Methods Mol Biol 945:109-121) and passage 1 cells were derived from human lungs unsuitable for transplantation from non-smoker organ donors without pre-existing lung disease under protocol #03-1396 approved by the University of North Carolina at Chapel Hill Biomedical Institutional Review Board. Informed consent was obtained from authorized representatives of all organ donors. 30,000 cells were plated into each well of 6.5 mm polyester inserts containing 0.4 μm pores (Sigma-CLS3470) coated with Type IV human placenta collagen (Sigma-C7521). 100 μl of ALI medium was added to the insert and 600 μl of ALI medium was added to the well at the time of plating. At Day 3, ALI medium from the insert was removed while that in the well was changed daily for 28 days. At Day 28, the inserts containing the cells were removed from their wells, washed with PBS, and incubated at 37° C. for 30 minutes with 1×10^8 CFU S. aureus. Cells were then washed three times with PBS and returned to wells containing 600 μl of ALI medium to regrow. Cells were harvested at multiple time points up to five days after injury for protein or RNA extraction. All cultures were maintained at 37° C. in humidified air containing 5% CO2.
First, the role of Abl kinases in basal cell differentiation in primary human bronchial epithelial cells (HBECs) in air-liquid interface (ALI) cultures was examined. Basal cells were isolated from human donor lungs and plated on polyester transwell inserts at passage 1. Once the cells were 100% confluent (3-4 days after plating), media from the top chamber of the transwell insert was removed to promote differentiation of the basal cells into a pseudostratified ciliated epithelium (FIG. 19A). […] Among these are acetylated α-tubulin and SNTN (ciliated cell marker) and SCGB3A2 (secretory cell marker) (FIG. 19C).
To identify whether Abl kinase inhibition promotes early (Krt5+ cells→Krt8+ cells) or late (Krt8+→acetylated α-tubulin or Scgb1a1+ cells) differentiation, a time course experiment in primary HBEC ALI cultures was conducted. Primary HBECs were plated on polyester transwell inserts and treated with vehicle control or GNF5 24 hours after plating.

Abl kinases = conditions: Zhang J. et al. (2010) Nature 463:501-506; cited from earlier work
[6] = system: mouse airway epithelium after SO2 injury; assay: sulfur dioxide (SO2) airway injury mouse model; type: in vivo
Description: To evaluate whether the Abl kinases promote basal cell differentiation in vivo, the sulfur dioxide (SO2) injury model was employed (FIG. 22). SO2 inhalation elicits cell death and sloughing of luminal (ciliated and secretory) cells, leaving a layer of intact basal cells in the tracheobronchial region (Zuo W. et al. (2015) Nature. 517(7536):616-20). Previous studies have shown that after SO2-induced destruction and sloughing of luminal cells, the surviving basal cells (Krt5+) proliferate to generate progenitor cells (Krt8+) that accumulate and subsequently undergo differentiation into ciliated (acetylated alpha-tubulin+) and secretory (Scgb1a1+) cells (5 days to 2 weeks after injury) (Hogan B L, et al. (2014) Cell stem cell, 15(2):123-38). This well-defined model of airway injury and regeneration has been employed to identify signaling pathways that promote proliferation and differentiation of the lung epithelium after injury (Hogan B L, et al. (2014) Cell stem cell, 15(2):123-38, Tadokoro T, et al., (2014) Proceedings of the National Academy of Sciences of the U.S.A. 111(35):E3641-9).
To distinguish between protective and regenerative effects of Abl kinase inhibition, the expression of various proliferation and differentiation markers in the mouse trachea after injury was evaluated.
Next, whether Abl kinase inhibition promotes basal cell differentiation to Krt8+ cells by affecting Yap1 signaling was investigated. Three days after SO2 injury, mouse tracheas were harvested and evaluated for Yap1 protein expression by immunofluorescence.

[7] = system: Kras G12D/+; p53 -/- driven lung tumors; type: in vivo, mouse; conditions: GNF5 b.i.d.; docetaxel at sub-therapeutic dose; vehicle four-fold increase
[8] = day 3 post-infection, treatment started 24 hours after injury (Post)

Cc1cn(-c2cc(NC(=O)c3ccc(C)c(Nc4nccc(-c5cccnc5)n4)c3)cc(C(F)(F)F)c2)cn1 [nilotinib]
expression of downstream transcriptional targets of YAP (Birc5, c-Myc, Cyclin D3) (Primary HBECs [1]): decreased transcript and protein expression | SOX2 (basal cell marker) expression, immunoblot [2]: decrease in the basal cell marker, SOX2 | acetylated α-tubulin (ciliated cell marker) expression, immunoblot [2]: increase in the ciliated cell marker, acetylated α-tubulin | Ki67 (proliferation marker) protein expression [2]: increase in protein expression of the proliferation marker, Ki67 | transepithelial electrical resistance across monolayer (Primary HBECs [3]): increased resistance | lung injury ([4]; FIG. 9F, treatment 24 h after injury): significant reduction in lung injury | BAL protein concentration [4, 8]: reduction in protein in the airspace | acetylated α-tubulin expression (3D reconstruction) ([5]; 7 days after plating): increase in expression of acetylated α-tubulin | acetylated α-tubulin protein expression (Western blot) ([5]; 7 days after plating): increase in protein expression of acetylated α-tubulin

O=C(NCCO)c1cccc(-c2cc(Nc3ccc(OC(F)(F)F)cc3)ncn2)c1 [GNF5, N-(2-Hydroxyethyl)-3-(6-(4-(trifluoromethoxy)phenylamino)pyrimidin-4-yl)benzamide]
SOX2 (basal cell marker) expression, immunoblot [2]: decrease in the basal cell marker, SOX2 | acetylated α-tubulin (ciliated cell marker) expression, immunoblot [2]: increase in the ciliated cell marker, acetylated α-tubulin | bronchosphere growth: basal cell proliferation and differentiation [2]: promoted basal cell proliferation and differentiation | Ki67 (proliferation marker) protein expression [2]: increase in protein expression of the proliferation marker, Ki67 | selectivity versus other protein kinases (Abl kinases): does not inhibit other protein kinases | Ki67 expression in tracheal basal cells ([6]; 24 h following SO2 induced injury, vs untreated): significant increase in the expression of Ki67 | Scgb1a1+ Club cells and acetylated α-tubulin+ ciliated cells (staining) ([6]; 24 hours after SO2 exposure): mostly intact layer of secretory cells and some ciliated cells | quantification of acetylated α-tubulin+ ciliated cells in whole tracheas ([6]; 24 hours after sulfur dioxide, pre-treatment 24 hours before): protection of ciliated cells | pseudostratified epithelium in whole trachea sections (immunofluorescence) ([6]; after SO2 injury, vs untreated mice): preservation of the pseudostratified epithelium | Yap1 localization in basal cells ([6]; three days after SO2 injury): predominantly cytoplasmic localization of Yap1 | tracheal epithelium morphology (H&E) ([6]; three days after SO2 injury): stratified, columnar, ciliated epithelium that had almost completely recovered from injury | state of airway epithelium ([6]; within 24 hours after SO2 injury, pre-treated mice): mostly intact mouse airway epithelium | activity and appearance of mice ([4]; 24 h after injury, vs vehicle control-treated mice): active and exhibited a healthy appearance | lung injury in lung tissue sections (H&E) ([4]; 72 hours post-infection, treatment started 1 h after insufflation): significant decrease in lung injury | proportion of GFP+ (Scgb1a1 driver) SPC+ cells ([4]; CC10-CreER, Rosa26-fGFP mice, three days after injury, vs vehicle): significant increase | proportion of SOX2+ SPC+ cells expanding from bronchioles into lung parenchyma ([4]; SOX2-eGFP mice, 100 mg/kg b.i.d. oral gavage from 24 h before insufflation, three days after injury, vs vehicle): dramatic increase | alveolar damage (loss of alveolar area/volume compared to uninfected mice) ([4]; SPC-CreERT2, Rosa26-tdTomato mice, 3 days after injury, vs Abl1 wt or fl/fl mice): reduced damage | tdTomato+, RAGE+ (Type I) cells derived from tdTomato+, SPC+, RAGE- (Type II) cells ([4]; SPC-CreERT2, Rosa26-tdTomato mice, three days after injury): detected at sites of damage only in mice treated with GNF5 | proportion of tdTomato+ (Sftpc driver) RAGE+ Type I AECs ([4]; SPC-CreERT2, Rosa26-tdTomato mice, vs untreated wild-type and Abl1 knockout): increase in the proportion | SPC expression in SCGB1A1+ cells within the bronchioles ([4]; after injury): enhanced SPC expression | BAL protein concentration [4, 8]: significant reduction in protein concentration | BAL protein concentration ([4]; day 3 post-infection, treatment started 24 hours prior to injury (Pre)): significant reduction in protein concentration | recovery of alveolar epithelium (RAGE staining) ([4]; day 3 post-infection, vs control mice): recovered more rapidly | recovery of mice after injury ([4]; two doses, 1 hour and 16 hours after injury, evaluated after 24 hours, vs vehicle): sufficient to promote recovery after 24 hours | SNTN expression (RT-PCR) ([5]; 7 days after plating): increase in expression of SNTN | Krt8 expression (immunofluorescence and Western blot) ([5]; treated 24 hours after plating): significant increase in expression of Krt8 | change in tumor size over a two-week period (μCT) [7]: two-fold increase in tumor size

O=C1NC(=O)C(c2cn(-c3ccccc3)nc2-c2ccc(F)cc2)N1 (stereo not drawn) [DPH]
SOX2 (basal cell marker) expression, immunoblot [2]: increased expression of the basal cell marker, SOX2 | acetylated α-tubulin (ciliated cell marker) expression, immunoblot [2]: decreased expression of acetylated α-tubulin | bronchosphere growth: basal cell proliferation and differentiation [2]: reduced bronchosphere growth and differentiation
